{
  "source": "patent US20030124167A1",
  "about": "“Pest controlling” (priority 1999, published 2003)",
  "assay": "Miscibility of pheromones with corn oil or triethylcitrate",
  "type": "physicochemical",
  "from_the_text": "Miscibility of the active ingredient and diluents were further examined by forming mixtures of various active ingredients (pheromones) with corn oil or triethylcitrate. The final composition of the mixture produced was 40 vol. % pheromones and 60 vol. % diluent (i.e., corn oil or triethyl citrate). The individual pheromones evaluated were: tomato pinworm, pink bollworm, leafroller, oriental fruitmoth, and coddling moth.",
  "data": [
    {"compound": "C/C=C/C=C/CCCCCCCO", "note": "[coddling moth]", "values": [
      {"measurement": "Dissolution in both corn oil and triethyl citrate", "setting": "pheromone solid at room temperature", "result": "dissolved freely"},
      {"measurement": "Miscibility in corn oil or triethylcitrate", "setting": "room temperature, 40 vol. % pheromones/60 vol. % diluent", "result": "completely miscible"}
    ]}
  ]
}
